Measured values reported in patent publication US8048872B2, “Treatment of hyperproliferative diseases with vinca alkaloid N-oxide and analogs” (Stat of Oregon Acting by and Through The Oregon State Board …, priority 2006, dated 2011).
Several values for one entry are separate records, joined by “and”; a condition that tells them apart may be missing. Equal entries are not always repeated. Where two headings read alike, the source gives them in different places.

What was measured:
[1] = tested on: human HT29 colorectal adenocarcinoma; parameters: species or system mouse; settings: in vivo, ip, 100 mg/kg
[2] = cited from earlier work
[3] = tested on: metastatic cancer of the colon or rectum; settings: 350 mg/m^2 30-minute iv infusion once every 3 weeks; 132 previously treated patients; cited from earlier work
[4] = tested on: human H460 lung adenocarcinoma
Description: (§3) Tumor cell line were cultured in DMEM-10% FBS under standard conditions. One-hundred mm plastic culture dishes were seeded with 1×10^6 tumor cells and treated with vinca alkaloids or N-oxide analogs at a dose range of 0.01-100 nM. Cells were exposed with gentle rocking to a constant level of low oxygen (0.2% O2-5% CO2-balance N2) in a hypoxia apparatus (INVIVO2400 Hypoxia Workstation, Ruskin Technology) for 14 hr at 37° C. Identically treated cells were incubated under normoxia (air-5% CO2) at 37° C. Cells were harvested and replated in fresh medium at a density of 1×10^3 cells/well in 48-well plastic culture plates to assess viability 24-72 hr later. Briefly, Alamar Blue was added to replicate wells on Day 0 and Day 3, and cells were incubated for a further 3-6 hr at 37° C. before fluorescence readings using a plate reader (530-560 nm excitation, 590 emission). The percent inhibition of proliferation was calculated and plotted against control-treated cells at each drug concentration. […] The Hypoxia Cytotoxicity Ratio (HCR) was determined as the ratio of the IC50 of the compound under normoxic conditions vs. hypoxic conditions.

[5] = tested on: murine P388 leukemic tumor cells; assay: in vivo; settings: P388
Description: (§1) For example, B6D2F1 mice (n=8/group) were inoculated subcutaneously (sc) in the right flank with 1×10^6 murine L1210 leukemic tumor cells. […] Test agents were administered on multiple treatment regimen (q3d×5) to yield optimal dose schedule benefit. Vehicle control treated mice served as the negative control group; mice treated with the bioreduced parent compounds, vincristine and vinblastine, dosed at their […] (MTDs), served as the positive control groups. Tumors were measured with calipers twice weekly and tumor volume calculated using the formula: Tumor Volume (mm^3)=((width)^2×length)/2. Animals were monitored for signs of toxicity and weighed daily for the first 5 days of the study and then twice-weekly until the study end. As pre-defined in the protocol, each animal was actively euthanized when its tumor reached the pre-determined endpoint size of 2000 mm^3 or at the conclusion of the study (day 37) whichever came first. The time to endpoint (TTE) was calculated for each mouse as TTE (days)=(log10(endpoint volume mm^3)−b)/m where b is the intercept and m is the slope of the line obtained by linear regression of a log-transformed tumor growth data set. Treatment outcome was determined from tumor growth delay (TGD) which is defined as the increase in median TTE in a treatment (T) group as compared to the control (C) group (TGD=T−C) expressed in days or as a percentage of the median TTE of the control group % TGD=((T−C)/C)×100. […] Statistical significance between the treated vs. control groups was evaluated by logrank analysis.
(§2) This model was developed by subcutaneously inoculating B6D2F1 mice (n=8/group) with 1×10^6 murine P388 leukemic tumor cells using similar methodology to that described above for L1210. […] Agents were administered on multiple treatment regimen (q3d×5) to yield optimal dose schedule benefit. Efficacy of treatment with the N-oxide analogs was determined by Tumor Growth Delay (TGD) and Kaplan-Meier survival analysis as described for L1210, the exception being that the conclusion of the study was day 45 or the predefined endpoint size of 2000 mm^3 whichever came first. Vehicle control treated mice served as the negative control group; mice treated with the standard agents, vincristine and vinblastine, dosed at their MTDs, served as the positive control groups.

[6] = tested on: human H460 lung adenocarcinoma; assay: cells; settings: NCI-H460, 14 h
Description: as §3

in vivo [7] = settings: female, nude, mouse, iv
Description: In one example, female nude mice (n=10) were inoculated subcutaneously with 15×10^6 human K562 myelogenous leukemia cells in a 1:1 ratio with matrigel on the right flank. Tumor volumes were monitored and calculated using the formula: Tumor volume=(a^2×b/2) where ‘a’ is the smallest diameter and ‘b’ is the largest diameter. Once the established tumors reached approximately 75-150 mm^3 (individual tumor volumes may range from […]) the mice were assigned to the various vehicle control and treatment groups such that the mean tumor volumes in the treated groups were within 10% of the mean tumor weight in the vehicle control group. On the same day (day 1) and days 4, 7, 10, and 13, vinca-alkaloid N-oxide analogs (VCR-NO, VBL-NO) were administered intravenously according to a q3d×5 schedule. Mice were also treated with vehicle (negative control) and the standard agents, vinblastine and vincristine (positive controls). Tumor volumes were recorded three times a week starting when tumors were palpable and including the day of study termination. Animals were monitored for signs of toxicity and body weights were recorded twice a week starting on the first day of treatment and including the day of study termination. […] The mean day of sacrifice were calculated to determine the tumor growth delay and tumor growth inhibition effects of each test article as compared to vehicle control. […] Statistical significance between the treated vs. control groups was evaluated by logrank analysis.

in vivo [8] = settings: B6D2F1, mouse, in vivo, iv
Description: as §1

[9] = tested on: murine L1210 leukemic tumor cells; assay: in vivo; settings: L1210
Description: as §1

[10] = 0.6-1 mg/kg iv q3d×5; during the course of treatment
Description: Body weights were monitored twice weekly and up to 2 weeks following treatment. Mice were also injected iv with 0.6 or 1 mg/kg vincristine using the same q3d×5 schedule as a positive control.

in vivo [11] = settings: B6D2F1, mouse, in vivo, iv; remark: listed apart in the source
Description: as §1, §2

in vivo [12] = settings: female, nude, mouse, iv; remark: listed apart in the source
[13] = Formation of clear solution in aqueous vehicles; assay type: physicochemical; settings: de-ionized water and 5% dextrose/water solutions
[14] = Grade III-IV, Naïve pts (n = 48)
[15] = Grade III-IV, Pre-treated patients (n = 165)
[16] = non-Hodgkin's lymphoma, 9 mcg/kg/d IV days 1-5, every 21 days
[17] = non-Hodgkin's lymphoma, 9 or 18 mcg/kg/d IV days 1-5, every 21 days, Grade III-IV
[18] = non-Hodgkin's lymphoma, 18 mcg/kg/d IV days 1-5, every 21 days

CCc1c2c(nc3ccc(OC(=O)N4CCC(N5CCCCC5)CC4)cc13)-c1cc3c(c(=O)n1C2)COC(=O)[C@]3(O)CC [CPT-11, 7-ethyl-10[4-(1-piperidino)-1-piperidino]carbonyloxycamptothecin, reference compound]
Tumor Growth Delay [1]: 60% | Alopecia [2, 14]: Alopecia 54% | Delayed Diarrhea [2, 14]: Delayed Diarrhea 35% | Nausea/Vomiting [2, 14]: Nausea/Vomiting 13% | Thrombocytopenia [2, 14]: Thrombocytopenia 2% | Leukopenia/Neutropenia Toxicity ([2]; Grade III-IV, Naïve pts): 48% | Alopecia [2, 15]: Alopecia 53% | Delayed Diarrhea [2, 15]: Delayed Diarrhea 39% | Nausea/Vomiting [2, 15]: Nausea/Vomiting 22% | Thrombocytopenia [2, 15]: Thrombocytopenia 3% | Leukopenia/Neutropenia Toxicity ([2]; Grade III-IV, Pretreated pts): 47% | Documented Infection ([2]; Grade III-IV): 5% | Neutropenic Fever ([2]; Grade III-IV): Neutropenic Fever 14% | Anemia Grade III-IV ([2]; Naïve pts (n = 48)): 8% | Anemia Grade III-IV ([2]; Pre-treated patients (n = 165)): 10% | intent-to-treat response rate [3]: 12.1%

CC[C@]1(O)C[C@@H]2CN(CCc3c([nH]c4ccccc34)[C@@](C(=O)OC)(c3cc4c(cc3OC)N(C)[C@H]3[C@@](O)(C(=O)OC)[C@H](OC(C)=O)[C@]5(CC)C=CCN6CC[C@]43[C@@H]65)C2)C1 [Vinblastine, vinblastine]
Hypoxia Cytotoxicity Ratio (HCR) [4]: 1 | Median Survival ([5]; 5 mg/kg i.v. q3d×5): 30.8 days | Tumor Growth Delay ([5]; 5 mg/kg i.v. q3d×5): 149% | IC50 ([6]; read-out: IC50 Air): 20 nM | IC50 ([6]; read-out: IC50 Hypoxia): 17 nM | median day of death (4 mg/kg ip q3d×5): 10.8 days | median day of death (6 mg/kg ip q3d×5): 9.8 days | MTD (in vivo [7]): 2.5 mg/kg | MTD (in vivo [8]): 5 mg/kg | Median Survival ([9]; 5 mg/kg i.v. q3d×5): 24.3 days | Tumor Growth Delay ([9]; 5 mg/kg i.v. q3d×5): 34%

CC[C@]1(O)C[C@H]2CN(CCc3c([nH]c4ccccc34)[C@@](C(=O)OC)(c3cc4c(cc3OC)N(C=O)[C@H]3[C@@](O)(C(=O)OC)[C@H](OC(C)=O)[C@]5(CC)C=CCN6CC[C@]43[C@@H]65)C2)C1 [Vincristine, vincristine]
body weight loss [10]: significant body weight loss | Hypoxia Cytotoxicity Ratio (HCR) [4]: 1.1 | MTD (in vivo [11]): 1 mg/kg | Median Survival ([5]; 1 mg/kg i.v. q3d×5): 20.8 days | Tumor Growth Delay ([5]; 1 mg/kg i.v. q3d×5): 54% | IC50 ([6]; read-out: IC50 Air): 17 nM | IC50 ([6]; read-out: IC50 Hypoxia): 15 nM | MTD (in vivo [12]): 1.5 mg/kg | MTD (in vivo [7]): 1.5 mg/kg | MTD (in vivo [8]): 1 mg/kg | Median Survival ([9]; 1 mg/kg i.v. q3d×5): 19.6 days | Tumor Growth Delay ([9]; 1 mg/kg i.v. q3d×5): 8%

Arsenic trioxide
Anemia Grade III-IV ([2]; Grade III-IV): Anemia Grade III-IV 5% | Arthralgia/Myalgia ([2]; Grade III-IV): Arthralgia/Mylagia 13% | Convulsions ([2]; Grade III-IV): Convulsions 5% | Disseminated Intravascular Coagulation ([2]; Grade III-IV): 8% | Dyspnea ([2]; Grade III-IV): Dyspnea 10% | Febrile Neutropenia ([2]; Grade III-IV): Febrile Neutropenia 8% | Fever ([2]; Grade III-IV): Fever 5% | Hyperglycemia ([2]; Grade III-IV): Hyperglycemia 13% | Hypokalemia ([2]; Grade III-IV): Hypokalemia 13% | Hypomagnesemia ([2]; Grade III-IV): Hypomagnesemia 13% | Hypoxia ([2]; Grade III-IV): Hypoxia 10% | Leukocytosis ([2]; Grade III-IV): Leukocytosis 3% | Neutropenia ([2]; Grade III-IV): 10% | Paresthesias ([2]; Grade III-IV): Paresthesias 5% | Sepsis ([2]; Grade III-IV): Sepsis 5% | Thrombocytopenia ([2]; Grade III-IV): Thrombocytopenia 12%

Denileukin diftitox
Leukopenia [2, 16]: Leukopenia 6% | Neutropenia [2, 16]: Neutropenia 3% | Constitutional Symptoms [2, 17]: Symptoms 37-47% | Gastrointestinal [2, 17]: Gastrointestinal 20-36% | Infection [2, 17]: Infection 33-43% | Infusion-Related Events: Back Pain [2, 17]: Back Pain 6-11% | Infusion-Related Events: Chest Pain/Tightness [2, 17]: Tightness 9% | Infusion-Related Events: Dyspnea [2, 17]: Dyspnea 6-11% | Infusion-Related Events: Hypotension [2, 17]: Hypotension 8-11% | Infusion-Related Events: Pruritis [2, 17]: Pruritis 6% | Infusion-Related Events: Vasodilation [2, 17]: Vasodilation 3% | Rash [2, 17]: Rash 19-23% | Right Heart Failure [2, 17]: Right Heart Failure 3-6% | Thrombotic Events [2, 17]: Thrombotic Events 3-8% | Vascular Leak Syndrome [2, 17]: Syndrome 17-25% | Leukopenia [2, 18]: Leukopenia 3% | Neutropenia [2, 18]: Neutropenia 3%

Gemcitabine + Cisplatin
Anemia Grade III-IV ([2]; Grade III-IV): 25% and 27% | Cardiac Dysrhythmia ([2]; Grade III-IV): 2.8% | Dyspnea ([2]; Grade III-IV): Dyspnea 7% | Elevated Creatinine ([2]; Grade III-IV): Elevated Creatinine 4.8% | Nausea ([2]; Grade III-IV): Nausea 27% | Neurohearing ([2]; Grade III-IV): Neurohearing 6% | Neutropenic Sepsis ([2]; Grade III-IV): Neutropenic Sepsis 1% | Pulmonary ([2]; Grade III-IV): Pulmonary 3% | Vomiting ([2]; Grade III-IV): Vomiting 23% | Alopecia ([2]; Grade III): 10.5% | Diarrhea ([2]; Grade III): Diarrhea (Grade III) 3% | Granulocytopenia ([2]; Grade III): Grade III 21.7% | Hematuria ([2]; Grade III): 4.5% | Nausea/Vomiting ([2]; Grade III): (Grade III) 22% | Neuromotor ([2]; Grade III): 11.5% | Neutropenia ([2]; Grade III): 41.2% | Granulocytopenia ([2]; Grade IV): Grade IV 35.3% | Neutropenia ([2]; Grade IV): 29.9%

Liposomal doxorubicin
Anemia Grade III-IV ([2]; human, in vivo, iv): 9.8% | Leukopenia ([2]; human, in vivo, iv): Leukopenia 36% | Mucositis ([2]; human, in vivo, iv): Mucositis 5% | Nausea/Vomiting ([2]; human, in vivo, iv): Nausea/Vomiting 15% | Neutropenia Grade IV ([2]; human, in vivo, iv): Grade IV 6% | Neutropenic Fever ([2]; human, in vivo, iv): Neutropenic Fever 11% | Palmar-Plantar Erythrodysesthesia ([2]; human, in vivo, iv): Erythrodysesthesia 29% | Peripheral Neuropathy ([2]; human, in vivo, iv): 6% | Stomatitis ([2]; human, in vivo, iv): Stomatitis 14% | Thrombocytopenia ([2]; human, in vivo, iv): Thrombocytopenia 3%

Vinblastine N-Oxide Dihydrochloride
forms a stable clear solution at [13]: about 20 mg/mL

gemtuzumab: Mylotarg, Wyeth-Ayerst [reference compound]
Anemia Grade III-IV ([2]; Grade III-IV): 47% | Chills ([2]; Grade III-IV): Chills 13% | Dyspnea ([2]; Grade III-IV): Dyspnea 9% | Fever ([2]; Grade III-IV): Fever 15% | Hyperbilirubinemia ([2]; Grade III-IV): Hyperbilirubinemia 23% | Hyperglycemia ([2]; Grade III-IV): Hyperglycemia 12% | Leukopenia ([2]; Grade III-IV): 96% | Nausea ([2]; Grade III-IV): Nausea 9% | Neutropenia ([2]; Grade III-IV): 98% | Neutropenic Fever ([2]; Grade III-IV): Neutropenic Fever 7% | Pneumonia ([2]; Grade III-IV): Pneumonia 7% | Sepsis ([2]; Grade III-IV): Sepsis 16% | Thrombocytopenia ([2]; Grade III-IV): Thrombocytopenia 99% | patients with grade III or IV pneumonia ([2]; acute myelogenous patients, 9 mg/m^2 IV, two doses 14 days apart): 7%
